Data taken from publication PMC7155171, “Probing the Open Global Health Chemical Diversity Library for Multistage-Active Starting Points for Next-Generation Antimalarials” (ACS Infectious Diseases, 2020).
Like-named read-outs stand apart in the source and are kept apart here.

Experiments:
[1] = test system: P. falciparum Dd2 (PfLuc) line expressing firefly luciferase, asexual blood stage; experiment: microbe, parasite or virus in culture; type: cell-based, Plasmodium falciparum; conditions: Plasmodium falciparum
[2] = test system: P. falciparum Dd2; experiment: SYBR green I asexual blood stage proliferation assay (96 h); type: cell-based, Plasmodium falciparum; conditions: Plasmodium falciparum, DD2, 11-pt dose response, 96hr
[3] = DD2, read-out: CDD P. falciparum Luciferase ABS 11-pt Reconfirmation Dose Response (48hr): IC50 (μM), 11-pt dose response, 48hr
[4] = DD2, 8-pt dose response, 96hr, read-out: CDD P. falciparum Luciferase ABS 8-pt Reconfirmation Dose Response (96hr): IC50
[5] = DD2, 8-pt dose response, 96hr, read-out: CDD P. falciparum Luciferase ABS 8-pt Reconfirmation Dose Response (96hr): Maximum inhibition (%)
[6] = DD2, 11-pt dose response, 48hr, read-out: CDD P. falciparum Luciferase ABS 11-pt Reconfirmation Dose Response (48hr): Maximum inhibition (%)
[7] = DD2, 11-pt dose response, 96hr, read-out: CDD P. falciparum Luciferase ABS 11-pt Reconfirmation Dose Response (96hr): IC50
[8] = DD2, 11-pt dose response, 96hr, read-out: CDD P. falciparum Luciferase ABS 11-pt Reconfirmation Dose Response (96hr): Maximum inhibition (%)
[9] = Sybr Green I, read-out: CDD P. falciparum Sybr Green I ABS 11-pt Reconfirmation Dose Response (96hr): IC50
[10] = Sybr Green I, read-out: CDD P. falciparum Sybr Green I ABS 11-pt Reconfirmation Dose Response (96hr): Maximum inhibition (%)

Structure (SMILES)	IC50 [1, 3] [µM]	IC50 [1, 4] [µM]	Emax [1, 5] [%]	Emax [1, 6] [%]	IC50 [1, 7] [µM]	Emax [1, 8] [%]	IC50 [2, 9] [nM]	Emax [2, 10] [%]	IC50 ([1]; DD2, read-out: P. falciparum Luciferase ABS 11-pt Reconfirmation Dose Response (48hr): IC50, 11-pt dose response, 48hr) [µM]	IC50 ([1]; DD2, 8-pt dose response, 96hr, read-out: P. falciparum Luciferase ABS 8-pt Reconfirmation Dose Response (96hr): IC50) [µM]	Emax ([1]; DD2, 8-pt dose response, 96hr, read-out: P. falciparum Luciferase ABS 8-pt Reconfirmation Dose Response (96hr): Maximum inhibition (%)) [%]	Emax ([1]; DD2, 11-pt dose response, 48hr, read-out: P. falciparum Luciferase ABS 11-pt Reconfirmation Dose Response (48hr): Maximum inhibition (%)) [%]	IC50 ([1]; DD2, 11-pt dose response, 96hr, read-out: P. falciparum Luciferase ABS 11-pt Reconfirmation Dose Response (96hr): IC50) [µM]	Emax ([1]; DD2, 11-pt dose response, 96hr, read-out: P. falciparum Luciferase ABS 11-pt Reconfirmation Dose Response (96hr): Maximum inhibition (%)) [%]	IC50 ([2]; read-out: P. falciparum Sybr Green I ABS 11-pt Reconfirmation Dose Response (96hr): IC50) [nM]	Emax ([2]; read-out: P. falciparum Sybr Green I ABS 11-pt Reconfirmation Dose Response (96hr): Maximum inhibition (%)) [%]
CC(C)(C)C(=O)N1C[C@H](c2ccsc2)[C@H]2CN(C3CCCCC3)CC[C@H]21 [DDD01058940]	> 12.5	0.84	83.6	59.1	2.03	90.2	8800	74.2								
Cc1ccc(C2(CN3CCN(Cc4cnc(C)n4C)CC3)CC2)cc1 [DDD01059041]	1.95	0.25		77.8	0.532		1320	88.5								
CN(C)CCN(C)C(=O)Cn1cccc2cc(-c3ccc(F)cc3)nc1-2 [DDD01059044]	1.87	0.54	95.7	95.1	1.9	98.3	1170	99.6								
Cc1cccc(Nc2cccc(C3CCCN(Cc4ncc[nH]4)C3)n2)n1 (stereo not drawn) [DDD01059475]	1.69	1.07	95.8	98.9	> 1.39	100	965	92.2								
CC(C)CNC(=O)C1(Cc2ccccc2-c2cccs2)CCNC1 (stereo not drawn) [DDD01059689]	> 12.5	0.92	73.8	49.4	> 1.39	87.3	> 12500	45.7								
N[C@@H]1CCC[C@@H](Oc2ccc(F)cc2Oc2ccccc2)[C@@H]1O [DDD01059731]	> 1.4	0.69	93.5	89.8	> 1.39	98.4	4960	86.9								
Cc1ccc(Oc2cc(F)ccc2O[C@@H]2CCC[C@@H](N)[C@H]2O)cc1 [DDD01059749]	2.7	0.54	92.7	98	> 1.39	100	2270	95.9								
Cc1cccnc1CN1CC[C@H](Oc2cccc(F)c2)[C@@](C)(O)C1 [DDD01060871]	1.92	0.92	90.5	93.1	0.553	100	2590	82.8								
CC1(C)CC(N(Cc2cccnc2)Cc2cccc(F)c2)CC(C)(C)N1 [DDD01060979]	3.32	0.3	88		> 1.39	98.4	8550	79.9								
Cc1ccsc1CN(Cc1cccnc1)C1CC(C)(C)NC(C)(C)C1 [DDD01060982]	4.19	1.04	88.1	61.9	1.59	95.6	> 4160	70.5								
Cc1ccsc1CN(CCCN(C)C)Cc1ccccn1 [DDD01060996]	> 12.5	0.55	79.6	51.6	3.57	82.3	> 12500	46.2								
COc1ccc(C(C)NCc2ccsc2)cc1Cn1cccn1 (stereo not drawn) [DDD01061827]	> 12.5	0.79	81.9	38.8	1.78	68.9	> 4160	58.7								
Cc1ccc(CNC(C)c2cc(F)ccc2N2CCN(C)CC2)o1 (stereo not drawn) [DDD01061881]	3.93	0.41	90.7	87.5	2.12	97.7	2420									
Cc1cnn(CCNCc2nccn2Cc2ccccc2)c1 [DDD01062085]	10.4	0.53		75	1.22	95.2	> 12500	51.3								
CN1CCC(N(Cc2ccco2)S(=O)(=O)c2ccc(Br)cc2Cl)CC1 [DDD01063208]	> 12.5	0.58	76.6	21.3	2.19	81.7	10600	54.5								
Cc1ccc(CN(c2cc(C)nc3nc(C(F)(F)F)nn23)C2CC2)cc1 [DDD01063654]	2.34	0.37		89.4	0.45	99.7	2100									
CN(Cc1cc(F)cc2cccnc12)CC1CCN(CCO)CC1 [DDD01063806]	3.63	0.92	93.1	96.1	2.11	100	1110	93.2								
CN(Cc1cc(Cl)cc2cccnc12)CC1CCN(CCO)CC1 [DDD01063807]	2.2	0.36	94.1	97.5	1.42	100	584	95.8								
c1cc(N2CCC(CN3CCOCC3)CC2)c2sccc2n1 [DDD01064806]									1.38	1.43	94.6	99.7	1.12	100	1150	100
CNC(=O)CCN(C)CC1(c2ccc(Br)cc2)CC1 [DDD01064880]	5.21	0.54		64.4	4.63	88.9	6590	73.3								
Cc1cc(C)c(CNCC(O)c2ccc(F)c(F)c2)c(C)c1 (stereo not drawn) [DDD01065539]	0.316	0.15	96.6	97.4	0.143	100	312	99.5								
CC(NCCc1nccn1Cc1ccccc1)c1ccsc1 (stereo not drawn) [DDD01065612]	4.05	1.09	87.3	68.1	0.666	88.3	960	77.4								
